Patent US12522594B2, “2-heteroaryl-3-oxo-2,3-dihydropyridazine-4-carboxamides for the treatment of cancer” (Deutsches Krebsforschungszentrum, priority 2017, dated 2026)

Tests used:
AHR [1] = target: T1, AHR (Homo sapiens, UniProt P35869); assay: In vitro assay 1: antagonism in human cell line (transactivation assay, U87 cells prestimulated with kynurenic acid, DRE firefly luciferase reporter); type: cell-based; set-up: host or cells: U87 glioblastoma cells, stably transfected with DRE firefly luciferase and renilla reporter constructs; conditions: 150 uM kynurenic acid, 20 hours, read-out: Assay 1: AHR-luc Hum Antagonism IC50
T1 sequence (P35869 11-848): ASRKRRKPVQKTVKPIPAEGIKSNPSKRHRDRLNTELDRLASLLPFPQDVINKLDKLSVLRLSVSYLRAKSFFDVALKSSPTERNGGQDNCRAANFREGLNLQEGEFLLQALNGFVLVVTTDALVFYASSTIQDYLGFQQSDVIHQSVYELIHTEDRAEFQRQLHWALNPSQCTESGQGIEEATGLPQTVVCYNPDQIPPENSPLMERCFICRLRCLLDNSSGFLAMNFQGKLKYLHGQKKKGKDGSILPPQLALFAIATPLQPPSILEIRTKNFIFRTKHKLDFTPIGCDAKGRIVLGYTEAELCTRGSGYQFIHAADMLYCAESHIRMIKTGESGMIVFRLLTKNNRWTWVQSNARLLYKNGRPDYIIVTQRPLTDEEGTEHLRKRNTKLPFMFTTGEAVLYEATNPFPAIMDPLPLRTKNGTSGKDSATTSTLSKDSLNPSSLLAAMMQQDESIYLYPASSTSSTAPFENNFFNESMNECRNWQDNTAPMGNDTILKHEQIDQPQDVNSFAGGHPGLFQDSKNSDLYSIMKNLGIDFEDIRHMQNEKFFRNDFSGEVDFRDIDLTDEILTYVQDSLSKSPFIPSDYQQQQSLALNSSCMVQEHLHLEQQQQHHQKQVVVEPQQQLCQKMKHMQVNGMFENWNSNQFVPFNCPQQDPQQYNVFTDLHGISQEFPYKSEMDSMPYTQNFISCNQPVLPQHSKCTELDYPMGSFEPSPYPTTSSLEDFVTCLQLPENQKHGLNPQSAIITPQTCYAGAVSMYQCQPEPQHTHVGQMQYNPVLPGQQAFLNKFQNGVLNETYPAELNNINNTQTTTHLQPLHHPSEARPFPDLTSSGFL
Description: (§1) Transactivation Assay in Human Cell Line (In Vitro Assays 1 and 2)
(§2) Transactivation assays were carried out in U87 glioblastoma cells (ATCC) endogenously expressing AHR. In addition the cells were stably transfected with an AHR inducible firefly luciferase reporter gene construct that carried AHR-binding sites (DRE) in its promoter and a renilla reporter gene construct with constitutively active promoter. Kynurenic acid is an endogenous AHR activating ligand and was used to prestimulate test cells prior to testing the antagonistic properties of compounds.
In Vitro Assay 1: Antagonism in Human Cell Line
Normalization was done by positive and negative controls.

AHR [2] = target: T1, AHR; assay: In vitro assay 2: agonism in human cell line (transactivation assay, U87 cells, DRE firefly luciferase reporter); type: cell-based; set-up: host or cells: U87 glioblastoma cells, stably transfected with DRE firefly luciferase and renilla reporter constructs; conditions: no kynurenic acid, 20 hours, read-out: Assay 2: AHR-luc Hum Agonism IC50
Description: as §1, §2
In Vitro Assay 2: Agonism in Human Cell Line
As positive activation control cells were incubated with 300 uM kynurenic acid. Normalization was done by positive and negative controls.

SMILES | IC50 (AHR [1]) [nM] | IC50 (AHR [2]) [nM]
O=C(N[C@H]1CCCC(F)(F)[C@@H]1O)c1cc(-c2ccc(OC(F)(F)F)cc2)nn(-c2cccnc2)c1=O (relative stereo) [Example 140, N-[(trans)-3,3-Difluoro-2-hydroxycyclohexyl]-3-oxo-2-(pyridin-3-yl)-6-[4-(trifluoromethoxy)phenyl]-2,3-dihydropyridazine-4-carboxamide] | 9.55 | > 20000
O=C(N[C@H]1COC[C@@H]1O)c1cc(-c2ccc(Cl)cc2)nn(-c2cncc(F)c2)c1=O (relative stereo) [Example 154, 6-(4-Chlorophenyl)-2-(5-fluoropyridin-3-yl)-N-[(trans)-4-hydroxytetrahydrofuran-3-yl]-3-oxo-2,3-dihydropyridazine-4-carboxamide] | 36.8 | > 20000
O=C(N[C@H]1COC[C@H]1O)c1cc(-c2ccc(OC(F)(F)F)cc2)nn(-c2cccnc2)c1=O (relative stereo) [Example 157, N-[(cis)-4-Hydroxytetrahydrofuran-3-yl]-3-oxo-2-(pyridin-3-yl)-6-[4-(trifluoromethoxy)phenyl]-2,3-dihydropyridazine-4-carboxamide] | 39.3 | > 20000
O=C(N[C@H]1COC[C@H]1O)c1cc(-c2ccc(Cl)cc2)nn(-c2ccnnc2)c1=O (relative stereo) [Example 181, 3-(4-Chlorophenyl)-N-[(cis)-4-hydroxytetrahydrofuran-3-yl]-6-oxo-6H-1,4′-bipyridazine-5-carboxamide] | 911 | > 20000
O=C(N[C@H]1COC[C@H]1O)c1cc(-c2ccc(C(F)F)nc2)nn(-c2cccnc2)c1=O (relative stereo) [Example 182, 6-[6-(Difluoromethyl)pyridin-3-yl]-N-[(cis)-4-hydroxytetrahydrofuran-3-yl]-3-oxo-2-(pyridin-3-yl)-2,3-dihydropyridazine-4-carboxamide] | 6110 | > 20000
Cn1cc(-n2nc(-c3ccc(C(F)(F)F)cc3)cc(C(=O)N[C@@H]3COC[C@@H]3O)c2=O)cn1 (relative stereo) [Example 215, N-cis-4- Hydroxytetrahyd rofuran-3-yl-2-(1-methyl-1H-pyrazol-4-yl)-3-oxo-6-[4-(trifluoromethyl)phenyl]-2,3-dihydropyridazine-4-carboxamide] | 2.21 | > 20000
O=C(N[C@@H]1CSC[C@@H]1O)c1cc(-c2ccc(C(F)(F)F)cc2)nn(-c2cccnc2)c1=O (relative stereo) [Example 290, N-cis-4-Hydroxytetra-hydrothiophen-3-yl-3-oxo-2-(pyridin-3-yl)-6-[4-(trifluoromethyl)phenyl]-2,3-dihydropyridazine-4-carboxamide] | 2.82 | > 20000
O=C(N[C@@H]1COC[C@@H]1O)c1cc(-c2ccc(Cl)cc2)nn(-c2cncc(F)c2)c1=O (relative stereo) [Example 301, 6-(4-Chlorophenyl)-2-(5-fluoropyridin-3-yl)-N-[(cis)-4-hydroxytetrahydro-furan-3-yl]-3-oxo-2,3-dihydropyridazine-4-carboxamide] | 31 | > 20000
O=C(N[C@@H]1COC[C@@H]1O)c1cc(-c2ccc(C(F)F)cc2)nn(-c2cccnc2)c1=O (relative stereo) [Example 323, 6-[4-(Difluoromethyl)phenyl]-N-[(cis)-4-hydroxy-tetrahydrofuran-3-yl]-3-oxo-2-(pyridin-3-yl)-2,3-dihydropyridazine-4-carboxamide] | 60.4 | > 20000
C[C@]1(O)CCC[C@H]1NC(=O)c1cc(-c2ccc(OC(F)(F)F)cc2)nn(-c2cccnc2)c1=O (relative stereo) [Example 328, N-[(cis)-2-Hydroxy-2-methylcyclopentyl]-3-oxo-2-(pyridin-3-yl)-6-[4-(trifluoromethoxy)phenyl]-2,3-dihydropyridazine-4-carboxamide] | 30.6 | > 20000
Cc1ccc(-c2cc(C(=O)NC(CO)C(C)C)c(=O)n(-c3cnn(C)c3)n2)cc1 (single isomer, unassigned) [Example 3, N-(1-Hydroxy-3-methylbutan-2-yl)-6-(4-methylphenyl)-2-(1-methyl-1H-pyrazol-4-yl)-3-oxo-2,3-dihydropyridazine-4-carboxamide] | 105 | > 20000
CCC(CO)NC(=O)c1cc(-c2ccc(C)cc2)nn(-c2cnn(C)c2)c1=O (single isomer, unassigned) [Example 6, N-(1-Hydroxybutan-2-yl)-6-(4-methylphenyl)-2-(1-methyl-1H-pyrazol-4-yl)-3-oxo-2,3-dihydropyridazine-4-carboxamide] | 181 | > 20000
O=C(N[C@H]1COC[C@H]1O)c1cc(-c2ccc(C(F)F)nc2)nn(-c2cccnc2)c1=O (single isomer, unassigned) [Example 183, 6-[6-(Difluoromethyl)pyridin-3-yl]-N-[(cis)-4-hydroxytetrahydrofuran-3-yl]-3-oxo-2-(pyridin-3-yl)-2,3-dihydropyridazine-4-carboxamide] | 1970 | > 20000
CC(C)(O)C(NC(=O)c1cc(-c2ccc(Cl)cc2)nn(-c2cncnc2)c1=O)C(F)(F)F (single isomer, unassigned) [Example 187, 6-(4-Chlorophenyl)-3-oxo-2-(pyrimidin-5-yl)-N-(1,1,1-trifluoro-3-hydroxy-3-methylbutan-2-yl)-2,3-dihydropyridazine-4-carboxamide] | 33.5 | > 20000
O=C(N[C@@H]1CSC[C@@H]1O)c1cc(-c2ccc(C(F)(F)F)cc2)nn(-c2cccnc2)c1=O (single isomer, unassigned) [Example 291, (−)-N-cis-4-hydroxy-tetrahydrothiophen-3-yl-3-oxo-2-(pyridin-3-yl)-6-[4-(trifluoromethyl)phenyl]-2,3-dihydropyridazine-4-carboxamide] | 4.38 | > 20000

Other lines, results leading:

IC50 (AHR [1]) [nM] | IC50 (AHR [2]) [nM] | SMILES
15.3 | > 20000 | O=C(N[C@@H]1CCC[C@H]1O)c1cc(-c2ccc(Cl)cc2)nn(-c2cccnc2)c1=O (relative stereo) [Example 148, 6-(4-Chlorophenyl)-N-[(trans)-2-hydroxycyclopentyl]-3-oxo-2-(pyridin-3-yl)-2,3-dihydropyridazine-4-carboxamide]
4.37 | > 20000 | O=C(N[C@@H]1CC[C@@H]1O)c1cc(-c2ccc(C(F)(F)F)cc2)nn(-c2cccnc2)c1=O (relative stereo) [Example 224, N-cis-2- Hydroxycyclobutyl-3-oxo-2-(pyridin-3-yl)-6-[4-(trifluoromethyl)phenyl]-2,3-dihydropyridazine-4-carboxamide]
27.5 | > 20000 | O=C(N[C@@H]1CC[C@@H]1O)c1cc(-c2ccc(Cl)cc2)nn(-c2cccnc2)c1=O (relative stereo) [Example 258, 6-(4-Chlorophenyl)-N-cis-2-hydroxycyclobutyl-3-oxo-2-(pyridin-3-yl)-2,3-dihydropyridazine-4-carboxamide]
15.3 | > 20000 | O=C(N[C@@H]1CC[C@@H]1O)c1cc(-c2ccc(Cl)cc2)nn(-c2cccnc2)c1=O (single isomer, unassigned) [Example 249, (+)-6-(4-Chlorophenyl)-N-cis-2-hydroxycyclo-butyl-3-oxo-2-(pyridin-3-yl)-2,3-dihydropyridazine-4-carboxamide]
56.9 | > 20000 | O=C(N[C@@H]1CC[C@@H]1O)c1cc(-c2ccc(C(F)(F)F)cc2)nn(-c2cccnc2)c1=O (single isomer, unassigned) [Example 268, (−)-N-cis-2-Hydroxycyclo-butyl-3-oxo-2-(pyridin-3-yl)-6-[4-(trifluoromethyl)phenyl]-2,3-dihydropyridazine-4-carboxamide]
261 | > 20000 | O=C(N[C@@H]1CC[C@@H]1O)c1cc(-c2ccc(Cl)cc2)nn(-c2cccnc2)c1=O (single isomer, unassigned) [Example 281, (−)-6-(4-Chlorophenyl)-N-cis-2-hydroxycyclobutyl-3-oxo-2-(pyridin-3-yl)-2,3-dihydropyridazine-4-carboxamide]
